The numbers were not newly measured in patent US20070183984A1, “CALCIUM PHOSPHATE SALTS IN ORAL COMPOSITIONS SUITABLE AS A TOOTH REMINERALIZING AGENT” (WM. WRIGLEY JR. COMPANY, priority 2006, published 2007), which cites them from elsewhere.

The conditions of the first data set: g in about 100 ml of water at about 20° C.
Regarding polyglutamic acid, the solubility in water result was “about 5%”. With `O=C(O)CC(O)C(=O)O` (stereo not drawn) [malic acid], the solubility in water result is “about 55%”.

Turning to `O=C(O)/C=C/C(=O)O` [fumaric acid], the solubility in water entry is “about 0.6%”.

polyaspartic acid: the solubility in water result is on record as “about 5%”.

The conditions of another data set: octanol/water partition coefficient.
With `O=C(O)CC(O)C(=O)O` (stereo not drawn) [malic acid], the “Log Pow” value is given as −1.26. `O=C(O)CCCCC(=O)O` [adipic acid]: the “Log Pow” value is listed as 0.08.
